{
  "source": "patent US20100092459A1",
  "about": "“Protein Complex and Uses” (IMPERIAL INNOVATIONS LIMITED, priority 2006, published 2010)",
  "key": {"[1]": {"test_system": "FGF-2-mediated ERK phosphorylation in H510 cells", "test": "FGF-2-induced ERK phosphorylation in H510 cells, Western blot for biphospho-ERK", "format": "cell-based", "settings": "for inhibition of FGF-2-mediated ERK phosphorylation: dose range of inhibitor 1 h, then FGF-2 0.1 ng/ml 5 min", "experimental": "(B) Representative blots from (A) were quantified by optical densitometry normalised for actin. (C) H69 cells transfected with empty (V) or a wt-PKCε-GFP expressing vector (a) were analysed for phospho-ERK, XIAP and Bcl-XL levels. (D) Baseline level cell death in V-H69 and ε-H69 cells growing in 10% FCS was determined by flow cytometry using Annexin V staining. (E) ε-H69 and V-H69 cells in SFM were treated with or without 0.1 μM etoposide (VP-16) and cell numbers determined 96 h later. Conditions were performed in quadruplicates and the average cell number±SEM represented as fold over untreated. (F) H510 cells in SFM were treated with or without 40 μM ε-TITAT, ΕTI-TITAT or TITAT for 4 h prior to stimulation for 5 min with or without FGF-2 (0.1 ng/ml). Cell lysates were Western-blotted for biphospho-ERK. […] (G) H510 cells transfected with PKCε or scrambled (sc) siRNA were stimulated with or without FGF-2. Lysates were analysed for PKCε levels and Erk phosphorylation. (A, C, F and G) Lamin B and actin immunodetection were used as loading controls.\n(A) H510 cells were treated with or without a dose range of GF109203X (GF), Gö6976 (Go), Hispidin (His), BAPTA (BA) or Rottlerin (Rot) for 1 h prior to stimulation for 5 min in the presence or absence of either FGF-2 (0.1 ng/ml) or PDBu (400 nM). Cell lysates were analysed by SDS-PAGE/Western-blotting for biphospho-ERK. Lamin immunodetection was used as loading control. (B-top panel) Equal protein amounts from SCLC cell lines were compared for their PKC expression pattern. (B-bottom panel) SCLC cells in SFM were stimulated with and without FGF-2 for 5 min and cell lysates analysed by SDS-PAGE/WB for Erk phosphorylation. PKCε and PKCα levels (ODs from left panel) were compared to the ability to phosphorylate Erk in these SCLC cell lines. Results shown are representative of at least three independent experiments.\nThe PKCε translocation inhibitor ([…]) and PKCα translocation inhibitor ([…]) (Souroujon and Mochly-Rosen, 1998; Yedovitzky et al., 1997) were made cell-permeable by linkage to the HIV-derived TITAT sequence ([…]). H510 cells in RPMI were incubated for 4 h with 40 μM of either translocation inhibitor peptides or TITAT prior to further treatments. The activity of these inhibitors on ERK phosphorylation was assessed by Western Blotting."}, "S6K2 [2]": {"test_system": "S6K2", "test": "S6K2 immune complex kinase assay (S6-peptide substrate), ε-H69 cells", "format": "cell-based", "settings": "ε-H69 cells (PKCε over-expressing), 40 μM peptide 4 h", "experimental": "(§1) Cell lysates were subjected to immunoprecipitation with a PKCε antibody prior to Western blotting (WB) for the molecules indicated. (A-lower panel) Total cell lysate was Western-blotted as indicated. (B and E) […] was immunoprecipitated from V-H69 and ε-H69 (B) or […] cells (E) following 4 h treatment with or without ε[…] and TITAT. Immunoprecipitates were subjected to in-vitro kinase assays with S6-peptide as a substrate and the results shown are average cpm±SEM from triplicates of a representative experiment. (C) The phosphorylation of the endogenous V-H69 and -H69 cells in SFM were washed three times in RPMI 1640, and 2×10^6 cell aliquots were incubated in this medium for 30 min at 37° C. Cells were treated in the presence or absence of 40 μM ([…] or TITAT peptide for 4 h as indicated, prior to performing an immune complex kinase assay for S6K1 or […] as described (Pardo et al., 2001). In separate experiments, HEK293Tet cells expressing tetracycline-inducible kinase active cytoplasmic forms of S6K1 or […] were incubated with or without tetracycline prior to lysis and immune complex kinase assay."}, "S6K2 [3]": {"test_system": "S6K2", "test": "S6K2 immune complex kinase assay, FGF-2-stimulated H510 cells", "format": "cell-based", "settings": "peptide 4 h", "experimental": "as §1"}, "Bcl-XL and XIAP": {"test_system": "Bcl-XL and XIAP", "test": "Bcl-XL and XIAP expression in HEK293Tet cells, Western blot", "format": "cell-based", "experimental": "(§2) HEK 293-Tet clones transfected with an inducible vector for kinase active S6K1 (1KA), S6K2 (2KA) or empty vector were treated with tetracycline for 6 h prior to (A) Western-blotting (WB) as indicated or (B) S6K1 or 2 kinase assay using an S6 peptide as substrate. (C) V-, 1KA- and 2KA-293 cells were incubated in the absence of tetracycline with (white bars) or without (hatched bars) serum for 18 h or with tetracycline in the absence of serum (black bars) and the proportion of apoptotic cells determined using annexin V staining. (D) Cell lysates from 2KA and 1KA-293 cells treated with or without tetracycline, FGF-2 and PD098059 were analysed for Bcl-XL expression and S6 phosphorylation. (E) HEK 293 cells incubated with or without FGF-2 (4h) prior to serum deprivation (18 h) were analysed by annexin V staining. (A, D, F) Actin and lamin B immunodetections were used as a loading control. (B, C, E) Results represent the average of triplicates±SEM. (A-E) Results are representative of at least three independent experiments.\n(A and B) HEK293 expressing tetracycline-inducible kinase-active S6K1 (1KA) or 2 (2KA) were treated with or without tetracycline for 6 h (B) or the time indicated (A). (A) Cells were grown in the absence of FCS and a cell death time-course performed. Cell death was assessed microscopically by determining Trypan blue positivity. Results shown are averages±SEM of triplicates. (C) HEK293 cells were treated for 1 h with or without 25 μM PD098059 prior to stimulation with FGF-2 for 4 h. (B and C) Cell lysates were analysed by SDS-PAGE/WB for the levels of Bcl-XL and XIAP. Actin was used as a loading control. Results shown are representative of at least three independent experiments."}, "HEK293Tet cells": {"test_system": "HEK293Tet cells", "test": "Survival of HEK293Tet cells after serum deprivation (annexin V)", "format": "cell-based", "settings": "FGF-2 4 h before serum deprivation 18 h", "experimental": "as §2\nSCLC cells (5×10^4 cells/ml SFM) were pre-treated with or without 0.1 ng/ml FGF-2 for 4 h prior to treatment with 0.1 μM etoposide and incubated at 37° C. for 96 h. […] The proportion of cell death was either determined by trypan blue exclusion or by Annexin V staining and flow cytometry as previously described (Pardo et al., 2002)."}, "S6 protein": {"test_system": "S6 protein", "test": "Phosphorylation of endogenous S6 protein in ε-H69 cells (phospho-S6 antibody)", "format": "cell-based", "settings": "ε-H69 cells in SFM", "experimental": "S6 protein from V-H69 and ε-H69 cells in SFM treated with or without εTI-TITAT was determined using a phospho-S6 antibody. (D and F) PKCε KO MEFs re-expressing (KO+ε) or not (KO) […] were (D) grown in 10% FCS and analysed for phospho-S6 levels or (F) stimulated with or without FGF-2 and FCS prior to S6K2 immunoprecipitation and Western blotted as indicated. (C and D) Lamin B and actin immunodetection were used as a loading control. (A-F) Results shown are representative of at least 3 independent experiments."}, "S6K2 (human)": {"molecular_target": "S6K2 (human) (UniProt Q9UBS0)"}, "[4]": {"settings": "40 μM peptide 4 h, FGF-2 0.1 ng/ml 5 min"}},
  "data": [
    {"molecule": "O=c1cc(O)cc(/C=C/c2ccc(O)c(O)c2)o1", "note": "[Hispidin]", "values": [
      {"measurement": "inhibition of FGF-2-mediated ERK phosphorylation", "setting": "[1]", "result": "Only GF109203X and Rottlerin inhibited"}
    ]},
    {"molecule": "αTI-TITAT (SLNPEWNETGRKKRRQRRRPPQ)", "values": [
      {"measurement": "effect on basal S6K2 activity", "setting": "S6K2 [2]", "result": "no effect"},
      {"measurement": "inhibition of FGF-2-induced S6K2 activation", "setting": "S6K2 [3]", "result": "but not by αTI-TITAT or TITAT"},
      {"measurement": "inhibition of ERK phosphorylation in response to FGF-2 (in words)", "setting": "[1]; [4]", "result": "neither αTI-TITAT nor TITAT inhibited"}
    ]},
    {"molecule": "TITAT (GRKKRRQRRRPPQ)", "values": [
      {"measurement": "effect on basal S6K2 activity", "setting": "S6K2 [2]", "result": "no effect"},
      {"measurement": "inhibition of FGF-2-induced S6K2 activation", "setting": "S6K2 [3]", "result": "but not by αTI-TITAT or TITAT"},
      {"measurement": "inhibition of ERK phosphorylation in response to FGF-2 (in words)", "setting": "[1]; [4]", "result": "neither αTI-TITAT nor TITAT inhibited"}
    ]},
    {"molecule": "COc1cccc(-c2cc(=O)c3ccccc3o2)c1N", "note": "[PD098059]", "values": [
      {"measurement": "block of FGF-2-induced Bcl-XL and XIAP expression", "setting": "Bcl-XL and XIAP; HEK293 cells, 25 μM PD098059 1 h before FGF-2 4 h", "result": "could be blocked"},
      {"measurement": "suppression of increased Bcl-XL and XIAP expression", "setting": "Bcl-XL and XIAP; KA-S6K2 HEK293Tet cells, tetracycline induced", "result": "could not be suppressed"}
    ]},
    {"molecule": "CC(=O)c1c(O)c(C)c(O)c(Cc2c(O)c3c(c(C(=O)/C=C/c4ccccc4)c2O)OC(C)(C)C=C3)c1O", "note": "[Rottlerin]", "values": [
      {"measurement": "inhibition of FGF-2-mediated ERK phosphorylation", "setting": "[1]", "result": "inhibited"}
    ]},
    {"molecule": "Cn1c2ccccc2c2c3c(c4c5ccccc5n(CCC#N)c4c21)CNC3=O", "note": "[Gö6976]", "values": [
      {"measurement": "inhibition of FGF-2-mediated ERK phosphorylation", "setting": "[1]", "result": "Only GF109203X and Rottlerin inhibited"}
    ]},
    {"molecule": "FGF-2: fibroblast growth factor-2, purchased from Calbiochem", "values": [
      {"measurement": "Bcl-XL and XIAP expression", "setting": "Bcl-XL and XIAP; HEK293Tet cells stimulated with FGF-2", "result": "increased"},
      {"measurement": "survival", "setting": "HEK293Tet cells", "result": "increased survival"}
    ]},
    {"molecule": "εTI-TITAT (EAVSLKPTGRKKRRQRRRPPQ)", "values": [
      {"measurement": "effect on basal S6K2 activity", "setting": "S6K2 [2]", "result": "lowered S6K2 activity in ε-H69 cells to a level comparable to that found in V-H69 cells"},
      {"measurement": "effect on increased S6 phosphorylation", "setting": "S6 protein", "result": "prevented"},
      {"measurement": "inhibition of FGF-2-induced S6K2 activation", "setting": "S6K2 [3]", "result": "inhibited"},
      {"measurement": "inhibition of ERK phosphorylation in response to FGF-2", "setting": "[1]; [4]", "result": 60, "unit": "%"}
    ]},
    {"molecule": "wt-PKCε-GFP (enzyme)", "values": [
      {"measurement": "basal S6K2 activity (immune complex kinase assay with S6-peptide)", "setting": "S6K2 (human)", "result": 2, "unit": "fold"}
    ]},
    {"molecule": "CN(C)CCCn1cc(C2=C(c3c[nH]c4ccccc34)C(=O)NC2=O)c2ccccc21", "note": "[GF109203X]", "values": [
      {"measurement": "inhibition of FGF-2-mediated ERK phosphorylation", "setting": "[1]", "result": "inhibited"}
    ]},
    {"molecule": "O=C(O)CN(CC(=O)O)c1ccccc1OCCOc1ccccc1N(CC(=O)O)CC(=O)O", "note": "[BAPTA]", "values": [
      {"measurement": "inhibition of FGF-2-mediated ERK phosphorylation", "setting": "[1]", "result": "Only GF109203X and Rottlerin inhibited"}
    ]}
  ]
}
